Test results taken from the NIST ThermoML archive (doi:10.1016/j.jct.2012.05.008).
Numbers after ± are expanded uncertainties.

Assay: xn = mol fraction of the nth substance listed
Details: Liquid, Vibrating tube method, x2 = 0.3333

NC(N)=O [urea] + C[N+](C)(C)CCO.[Cl-]
mass density [kg/m3]
Details	298.15 K	303.15 K	308.15 K	313.15 K	318.15 K	323.15 K
100 kPa	1197.9 ± 2.7	1195.1 ± 2.7	1192.2 ± 2.6	1189.3 ± 2.6	1186.4 ± 2.6	1183.5 ± 2.6
5000 kPa	1199.3 ± 2.7	1196.4 ± 2.7	1193.6 ± 2.7	1190.7 ± 2.7	1187.8 ± 2.6	1184.9 ± 2.6
10000 kPa	1200.6 ± 2.7	1197.9 ± 2.7	1194.9 ± 2.7	1192 ± 2.7	1189.2 ± 2.7	1186.3 ± 2.7
15000 kPa	1201.9 ± 2.7	1199.1 ± 2.7	1196.3 ± 2.7	1193.4 ± 2.7	1190.5 ± 2.7	1187.6 ± 2.7
20000 kPa	1203.3 ± 2.7	1200.4 ± 2.7	1197.6 ± 2.7	1194.7 ± 2.7	1191.9 ± 2.7	1189 ± 2.7
25000 kPa	1204.6 ± 2.8	1201.8 ± 2.8	1198.9 ± 2.7	1196.1 ± 2.7	1193.2 ± 2.7	1190.4 ± 2.7
30000 kPa	1205.9 ± 2.8	1203.1 ± 2.8	1200.3 ± 2.8	1197.4 ± 2.8	1194.6 ± 2.7	1191.6 ± 2.7
35000 kPa	1207.1 ± 2.8	1204.4 ± 2.8	1201.5 ± 2.8	1198.7 ± 2.8	1195.8 ± 2.8	1193 ± 2.8
40000 kPa	1208.3 ± 2.8	1205.6 ± 2.8	1202.8 ± 2.8	1200 ± 2.8	1197.1 ± 2.8	1194.2 ± 2.8
45000 kPa	1209.5 ± 2.9	1206.8 ± 2.8	1204 ± 2.8	1201.2 ± 2.8	1198.3 ± 2.8	1195.5 ± 2.8
50000 kPa	1210.7 ± 2.9	1208 ± 2.9	1205.1 ± 2.9	1202.3 ± 2.8	1199.5 ± 2.8	1196.7 ± 2.8
